The values that follow come from patent publication US20160030416A1, “METHODS OF TREATING B2-BRADYKININ RECEPTOR MEDIATED ANGIOEDEMA” (SHIRE HUMAN GENETIC THERAPIES, INC., priority 2013, published 2016).

A short description of series [1]: Plasma kinetics, intravenous, beagle dogs. Type of series: in vivo, female beagle dogs. The note with it: IV 1 mg/kg. The procedure:
CFMQ (HGT3711) was administered to fasted female beagle dogs by a single intravenous injection at 1.0 mg/kg, formulated in 100% PEG200 (Table 10). Blood samples were taken via jugular vein puncture prior to administration and at 0.083 (5 min), 0.25 (15 min), 0.50 (30 min), 1, 4, 8 and 24 hours post dose. Plasma concentrations of CFMQ (HGT3711) were determined by LC-MS/MS and concentrations below the limit of quantitation (1.0 ng/mL) were assigned a value of zero for pharmacokinetic analysis. Nominal dosing concentrations were used in all calculations.

Series [2] deals with T1, human B2-bradykinin receptor (Homo sapiens, UniProt P30411).
T1 sequence (P30411 1-391): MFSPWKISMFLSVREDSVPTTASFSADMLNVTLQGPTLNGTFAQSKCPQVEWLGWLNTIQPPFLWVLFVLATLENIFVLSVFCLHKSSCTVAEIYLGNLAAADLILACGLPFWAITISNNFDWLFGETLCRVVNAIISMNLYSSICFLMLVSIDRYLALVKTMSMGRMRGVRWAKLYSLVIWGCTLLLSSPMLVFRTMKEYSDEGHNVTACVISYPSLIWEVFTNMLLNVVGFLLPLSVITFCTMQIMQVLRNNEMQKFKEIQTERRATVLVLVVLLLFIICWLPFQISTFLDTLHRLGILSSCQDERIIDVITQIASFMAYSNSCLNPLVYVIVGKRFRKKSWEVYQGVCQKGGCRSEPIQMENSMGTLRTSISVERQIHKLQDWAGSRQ
The experiment in a line: Calcium mobilization assay in human fibroblast (HF15) cells. The format is cell-based. More on the design: endogenous in cells; host or cells: HF15 human fibroblasts. The settings on record: 25 minutes pre-incubation at 25° C., read-out: IC50, inhibition of bradykinin-induced calcium mobilization.
Description: CFMQ was formulated as a 5 nM stock solution in 100% DMSO and serially diluted to 0.04, 0.12, 0.37, 1.11, 3.33, 10 and 30 nM. Human fibroblast (HF15) cells, which express the human B2R were loaded with 100 μL calcium dye solution containing 2.5 mM probenicide and were then pre-incubated with CFMQ for 25 minutes at 25° C. The inhibition effect of CFMQ on bradykinin-mediated calcium mobilization was tested in this system by emission of fluorescence signals, using the height of the resulting peak over the baseline value (relative fluorescence units [RFU] max-min). The percent inhibition for each concentration was used for curve fit and IC50 calculation.

Series [3] deals with BK-induced human umbilical vein contractions. Briefly: cells. The settings on record: Homo sapiens, 0.5 h; 30 minute incubation, BK-induced contractions; read-out: EC50, umbilical vein assay. As for the experimental part: The inhibition effect of CFMQ on bradykinin induced […] was examined in an ex vivo functional assay of human umbilical vein contraction, which is considered a gold standard for bradykinin activity measurements. […] Firazyr®). Following a 30 minute incubation, BK-induced vein contractions were initiated in a cumulative manner (final concentration of 10 μM), followed by maximal calibration contraction induction by 10 μM serotonin. The tension increase for each dose response was calculated in relation to the (maximal) response towards serotonin, graphed as a dose-response curve and used to calculate an effective concentration at 50% (EC50) value (FIG. 6)

Series [4] has as its system plasma extravasation. Briefly: Plasma extravasation (Evans blue in bladder), oral gavage, female WT mice. The format is in vivo. The procedure:
The efficacy of CFMQ (HGT3711) following orally administration was studied in female WT mice. Eight mice per group received either vehicle or CFMQ (HGT3711) at 1.0, 3.0, 10, or 30 mg/kg by oral gavage. An additional dose group received Firazyr® (icatibant-0.4 mg/kg) as a subcutaneous (SC) injection. Similar to the previous studies, inhibition of EB content in the dried bladder (μg EB per milligram of tissue weight) was utilized as measurement of efficacy.

The mark [5] stands for this setting: female, beagle, dog, plasma, extrapolated to t = 0.

Molecules are shown by their SMILES.

Usually AUC(0-inf) stands for total exposure, with the tail of the curve extrapolated. Low readings indicate low exposure, high ones high exposure. A word on the AUC(0-t): it is exposure summed from dosing to a finite time, without extrapolation to infinity. Low readings indicate low exposure, high ones high exposure. In general, clearance refers to the rate of elimination divided by the concentration. For orientation: half-life means the time needed for the level to fall by half in the phase considered. A lower half-life goes with fast loss. As a reminder, the Tmax is the time from dosing to the highest level. The IC50 is the concentration that gives 50% inhibition. One may read the EC50 as the concentration giving half of the maximal effect.

On to `Cc1cc(Cl)c(COc2cccc3c(-n4cc(F)cn4)cc(C)nc23)c(Cn2cccc(C#N)c2=O)n1` [CFMQ, 1-((4-Chloro-3-(((4-(4-fluoro-1H-pyrazol-1-yl)-2-methylquinolin-8-yl)oxy)methyl)-6-methylpyridin-2-yl)methyl)-2-oxo-1,2-dihydropyridine-3-carbonitrile], for which the “clearance as % of liver blood flow in dog (1.85 L/hr/kg)” value in series [1] was “approximately 14%”. In series [1] (female, beagle, dog, plasma), this molecule gave an AUC(0-inf) of 5270 ng·h/mL, an AUC(0-t) of 5160 ng·h/mL, a clearance of 4.17 mL/min/kg and a half-life of 2.69 h. Besides, the concentration at 0 hr in series [1] (female, beagle, dog, plasma, 0 hr, read-out: Average Concentration of HGT3711) was determined as 0 ng/mL. In addition, in series [1] (female, beagle, dog, plasma, 0.083 hr, read-out: Average Concentration of HGT3711), the concentration at 0.083 hr was found to be 1840 ng/mL. In addition, the concentration at 0.25 hr in series [1] (female, beagle, dog, plasma, 0.25 hr, read-out: Average Concentration of HGT3711) turned out to be 1320 ng/mL. In addition, in series [1] (female, beagle, dog, plasma, 0.50 hr, read-out: Average Concentration of HGT3711), the concentration at 0.5 hr came to 1070 ng/mL. The concentration at 1 hr in series [1] (female, beagle, dog, plasma, 1.0 hr, read-out: Average Concentration of HGT3711) is 717 ng/mL. The concentration at 4 hr in series [1] (female, beagle, dog, plasma, 4.0 hr, read-out: Average Concentration of HGT3711) is 377 ng/mL. The concentration at 8 hr in series [1] (female, beagle, dog, plasma, 8.0 hr, read-out: Average Concentration of HGT3711) came out at 180 ng/mL. Also, in series [1] (setting [5]), the C0 was 2180 ng/mL and the Tmax was 0 h. For the same molecule, the Vd in series [1] (female, beagle, dog, plasma, read-out: Vss) was found to be 0.75 L/kg. Moreover, the IC50 in series [2] turned out to be 2.97 nM. Besides, the EC50 in series [3] was 7.3 nM. Moreover, in series [4] (oral 10.0 mg/kg), the plasma value stood at 267 nM. Moreover, in series [4] (oral 10 mg/kg, female WT mice), the “inhibition of EB accumulation in the bladder” value was about 100%. Besides, the “efficacy compared with 0.4 mg/kg SC Firazyr” value in series [4] (oral 10.0 mg/kg, female WT mice) is given as “equally effective”. The “inhibition of EB accumulation in the bladder” value in series [4] (oral 30 mg/kg, female WT mice) is recorded as about 100%. The “minimally-effective dose (MED)” value in series [4] (oral gavage, female WT mice) was determined as 3.0 mg/kg.
